By IC50 is commonly meant the midpoint of a concentration-inhibition curve. A word on the inhibition: it is the share of the control response that was lost under treatment. Low readings indicate a response near the control, high ones a response far below the control. By DC50 is commonly meant the concentration at which degradation of the target reaches its halfway point.

The text below walks through data of US20240217970A1, “PHTHALIMIDO CEREBLON COMPLEX BINDERS AND TRANSCRIPTION FACTOR DEGRADERS AND METHODS OF USE” (DANA-FARBER CANCER INSTITUTE, INC., priority 2021, published 2024).

One assay concerns the target T1, CRBN (NanoLuc-CRBN) (Homo sapiens, UniProt Q96SW2).
T1 construct: expressed in transfected cells; host or cells: HEK293T (lentiviral transduction, puromycin selection)
The assay is described as follows: Cellular CRBN NanoBRET engagement assay. It is filed as cell-based. The settings on record: HEK293T cells stably expressing NanoLuc-CRBN; tracer 250 nM; two hours incubation. Here is the method: HEK293T cells were transduced with lentivirus and put under puromycin selection (5 μg/mL) for two weeks to produce a cell line stably expressing CRBN with N-terminally fused NanoLuc luciferase (NanoLuc®-CRBN). After antibiotic selection, cells were cultured in DMEM (Gibco, Life Technologies™) supplemented with 10% FBS and 1 μg/mL puromycin to maintain stable NanoLuc®-CRBN expression.
To run the assay, cells were cultured to confluency in 10 cm^2 tissue culture treated plates (Corning®, 430165), washed with PBS and trypsinized at room temperature to detach from the cell culture plate. After 3-4 minutes, the trypsin was quenched with 5× volume DMEM media (Gibco, Life Technologies™) with 10% FBS and cells are collected by centrifugation (1000 rpm, 5 min). The supernatant was removed by vacuum aspiration and the pellet was then resuspended in Opti-MEM™ without phenol red. The density of this cell suspension was determined by diluting the cells 1:1 with trypan blue, then counting using a Countess™ II (Thermo Fischer Scientific) and then diluted to the required volume at 2×10^5 viable cells/mL in Opti-MEM™ I (Gibco, Life Technologies™). CRBN engagement tracer (stock at 10 μM in 31.25% PEG-400, 12.5 mM HEPES, pH 7.5, filtered using a 0.22 μm nitrocellulose membrane; final concentration in cell suspension for assay at 250 nM) was added to the suspension. Cells were then plated in a white/opaque cell culture treated 384-well plate (Corning®, 3570) at volume of 50 μL/well. After plating, the assay plate was centrifuged (500×g, 5 min) and covered in aluminum foil. Compounds for testing were added to the plate using D300e Digital Dispenser (HP) in duplicate 12-pt titrations from a 10 mM stock in DMSO, with DMSO normalized to 1% total volume. The plate was then placed in an incubator at 37° C., 5% CO2 for two hours. After incubation, the plate was removed and set on the bench to come to room temperature (˜10-15 min). The NanoLuc® substrate (500× solution)* and extracellular inhibitor (1500× solution)* were diluted in Opti-MEM™ I (Gibco, Life Technologies™) to prepare a 3× solution. This was then added to each well (25 μL/well). The plate was read on a Pherastar® FSX microplate reader with simultaneous dual emission capabilities to read 384-well plates at 450 and 520 nm. The NanoBRET™ ratio was calculated by dividing the signal at 520 nm by the signal at 450 nm for each sample. Duplicate points were averaged and plotted against [compound, M] to generate an ECso curve.
In general terms: In BRET a luciferase serves as donor, and the signal depends on an acceptor being close.

The target of the next assay is T2, IKZF2 (Helios) (Homo sapiens, UniProt Q96SW2+Q9UKS7).
T2 construct: endogenous in cells; host or cells: MOLT4 (CRISPR/Cas knock-in of HiBiT at the endogenous IKZF2 locus)
Briefly: HiBiT-IKZF2 degradation assay in MOLT4 cells. It is filed as cell-based. The settings on record: for inhibition at 10 µM: MOLT-4, 10 μM; for DC50: concentration at which 50% of HiBiT-Helios degradation was achieved, read-out: Cellular Degradation - IKZF2 DC50. Here is the method: The HiBiT protein tagging system was applied to MOLT4 cells via a CRISPR/Cas-mediated insertion of the HiBiT peptide tag (Promega™) to the N-terminus of the IKZF2 gene locus (Neon™ Transfection System). The resulting HiBiT-Helios stable cell line was treated with inventive compounds 1-10 in triplicates following a 13-point concentration scheme ranging from 10 μM to 0.00026 μM. At the indicated timepoints, the Nano-Glo® HiBiT Lytic Detection system (Promega™) was utilized for detecting bioluminescence of the HiBiT tag in treated cells: the abundance of the tag is proportionate to the level of luminescence. Following normalization to DMSO, dose-response curves were plotted (GraphPad Prism) to determine the concentration points at which 50% of HiBiT-Helios degradation was achieved by each compound. The extent of degradation (range of luminescence) from the highest to lowest concentration points was calculated to determine Dmax.
Background: HiBiT is a short tag that completes a luciferase, so light tracks the accessible tagged protein.

T1 sequence (Q96SW2 whole entry, species assumed): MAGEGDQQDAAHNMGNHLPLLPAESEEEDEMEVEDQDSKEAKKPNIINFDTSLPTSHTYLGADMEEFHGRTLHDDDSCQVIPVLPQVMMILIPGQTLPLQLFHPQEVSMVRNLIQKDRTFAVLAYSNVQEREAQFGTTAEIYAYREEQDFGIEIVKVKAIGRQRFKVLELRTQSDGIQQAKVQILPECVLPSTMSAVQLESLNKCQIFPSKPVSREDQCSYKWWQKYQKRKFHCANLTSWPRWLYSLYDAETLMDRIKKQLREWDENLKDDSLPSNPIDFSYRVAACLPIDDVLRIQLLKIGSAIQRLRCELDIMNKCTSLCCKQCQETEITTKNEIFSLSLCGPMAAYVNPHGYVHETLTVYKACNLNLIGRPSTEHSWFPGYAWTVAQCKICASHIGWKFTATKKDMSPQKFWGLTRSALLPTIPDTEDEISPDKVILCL
T2 sequence (Q9UKS7 whole entry): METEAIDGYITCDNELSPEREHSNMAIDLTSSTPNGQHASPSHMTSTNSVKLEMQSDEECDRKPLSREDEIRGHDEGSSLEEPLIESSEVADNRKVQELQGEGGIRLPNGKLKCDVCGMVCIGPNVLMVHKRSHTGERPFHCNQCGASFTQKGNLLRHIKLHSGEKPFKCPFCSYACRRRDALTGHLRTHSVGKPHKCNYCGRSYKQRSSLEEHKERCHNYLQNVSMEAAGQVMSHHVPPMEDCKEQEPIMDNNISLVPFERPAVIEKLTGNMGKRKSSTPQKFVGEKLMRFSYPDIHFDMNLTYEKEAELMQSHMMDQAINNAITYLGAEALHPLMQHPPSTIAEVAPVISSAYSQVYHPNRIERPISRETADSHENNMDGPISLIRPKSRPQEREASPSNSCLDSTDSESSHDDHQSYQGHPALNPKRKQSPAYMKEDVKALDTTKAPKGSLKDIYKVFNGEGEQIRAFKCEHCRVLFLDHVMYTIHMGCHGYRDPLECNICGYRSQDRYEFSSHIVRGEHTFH
T2 sequence (Q96SW2 whole entry): as the sequence (Q96SW2 whole entry, species assumed) above
T2 sequence (Q16531 whole entry partner): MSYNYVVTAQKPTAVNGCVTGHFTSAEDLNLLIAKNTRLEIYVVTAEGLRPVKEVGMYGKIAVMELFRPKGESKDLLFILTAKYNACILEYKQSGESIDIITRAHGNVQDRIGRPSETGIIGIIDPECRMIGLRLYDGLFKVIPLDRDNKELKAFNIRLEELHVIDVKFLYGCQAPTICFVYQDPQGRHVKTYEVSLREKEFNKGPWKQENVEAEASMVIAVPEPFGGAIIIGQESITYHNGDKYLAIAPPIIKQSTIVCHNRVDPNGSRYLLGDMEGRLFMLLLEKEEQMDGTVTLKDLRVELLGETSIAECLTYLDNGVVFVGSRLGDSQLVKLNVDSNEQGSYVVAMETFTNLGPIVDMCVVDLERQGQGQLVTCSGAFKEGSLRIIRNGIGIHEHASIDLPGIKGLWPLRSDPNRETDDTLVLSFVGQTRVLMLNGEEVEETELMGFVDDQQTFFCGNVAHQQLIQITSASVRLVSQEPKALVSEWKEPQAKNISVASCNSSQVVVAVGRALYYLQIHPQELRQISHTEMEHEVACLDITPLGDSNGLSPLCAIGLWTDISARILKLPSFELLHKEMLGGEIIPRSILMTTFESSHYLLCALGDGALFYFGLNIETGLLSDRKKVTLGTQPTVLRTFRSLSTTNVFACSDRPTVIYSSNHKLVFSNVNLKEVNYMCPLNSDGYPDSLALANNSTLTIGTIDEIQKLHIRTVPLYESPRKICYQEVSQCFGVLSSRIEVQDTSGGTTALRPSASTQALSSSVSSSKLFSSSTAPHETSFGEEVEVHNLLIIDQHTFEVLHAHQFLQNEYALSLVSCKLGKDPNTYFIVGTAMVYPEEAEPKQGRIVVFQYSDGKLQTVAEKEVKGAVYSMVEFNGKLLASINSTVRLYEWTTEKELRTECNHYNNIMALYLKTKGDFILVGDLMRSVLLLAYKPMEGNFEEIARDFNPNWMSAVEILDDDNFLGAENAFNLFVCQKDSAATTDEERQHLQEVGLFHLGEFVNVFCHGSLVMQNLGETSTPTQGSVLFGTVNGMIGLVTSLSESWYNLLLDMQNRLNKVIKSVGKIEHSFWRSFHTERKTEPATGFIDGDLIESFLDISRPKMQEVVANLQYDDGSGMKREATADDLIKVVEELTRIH

Turning to `O=C1CCC(N2C(=O)c3ccc(C4(O)CCN(Cc5ccc6cc(-c7ccccc7)nn6c5)CC4)cc3C2=O)C(=O)N1` (stereo not shown) [Compound 1, 2-(2,6-dioxo-3-piperidyl)-5-[4-hydroxy-1-[(2-phenylpyrazolo[1,5-a]pyridin-6-yl)methyl]-4-piperidyl]isoindoline-1,3-dione], at CRBN (NanoLuc-CRBN), the 50% inhibitory concentration (IC50) is 38 nM. Besides, on IKZF2 (Helios), at 10 µM the inhibition was 80% and the DC50 turned out to be 4.9 nM.
Compound `COc1ccc(Oc2cccc(CN3CCC(O)(c4ccc5c(c4)C(=O)N(C4CCC(=O)NC4=O)C5=O)CC3)c2)cc1` (stereo not shown) [Compound 2] came in with an IC50 on CRBN (NanoLuc-CRBN) of 41 nM. Besides, on IKZF2 (Helios), the inhibition at 10 µM stood at 80% and the DC50 worked out at 5.1 nM.
On the same counts, the results for `O=C1CCC(N2C(=O)c3ccc(C4(O)CCN(Cc5cccc(Oc6ccc(Cl)cc6)c5)CC4)cc3C2=O)C(=O)N1` (stereo not shown) [Compound 3] are 54 nM, 79% and 8.8 nM.
On the same counts, the results for `O=C1CCC(N2C(=O)c3ccc(C4(O)CCN(Cc5ccc(F)c(Oc6ccccc6)c5)CC4)cc3C2=O)C(=O)N1` (stereo not shown) [Compound 4] are 88 nM, 73% and 23 nM.
On the same counts, the results for `N#Cc1ccc(Oc2cccc(CN3CCC(O)(c4ccc5c(c4)C(=O)N(C4CCC(=O)NC4=O)C5=O)CC3)c2)cc1` (stereo not shown) [Compound 5] are 24 nM, 77% and 4.3 nM.
Regarding `O=C1CCC(N2C(=O)c3ccc(C4(O)CCN(Cc5cccc(Oc6ccc(F)cc6)c5)CC4)cc3C2=O)C(=O)N1` (stereo not shown) [Compound 6], the IC50 against CRBN (NanoLuc-CRBN) is < 2.6 nM. For the same compound, at IKZF2 (Helios), at 10 µM the inhibition was 77% and the DC50 was determined as 7.3 nM.
Taken in the same sequence, the figures for `O=C1CCC(N2C(=O)c3ccc(C4(O)CCN(CC5CCOCC5)CC4)cc3C2=O)C(=O)N1` (stereo not shown) [Compound 7] were 56 nM, 55% and 55 nM.
The compound `O=C1CCC(N2C(=O)c3ccc(C4(O)CCN(Cc5cccc(Nc6ccccn6)n5)CC4)cc3C2=O)C(=O)N1` (stereo not shown) [Compound 8] came in with an IC50 against CRBN (NanoLuc-CRBN) of 76 nM. Moreover, on IKZF2 (Helios), testing at 10 µM gave an inhibition of 71% and the DC50 was found to be 24 nM.
`O=C1CCC(N2C(=O)c3ccc(C4(O)CCN(Cc5cccc6ccccc56)CC4)cc3C2=O)C(=O)N1` (stereo not shown) [Compound 9] returned an IC50 on CRBN (NanoLuc-CRBN) of 15 nM. Also, at IKZF2 (Helios), the inhibition at 10 µM was 72% and the DC50 stood at 14 nM.
For `COc1cccc(CN2CCC(O)(c3ccc4c(c3)C(=O)N(C3CCC(=O)NC3=O)C4=O)CC2)c1` (stereo not shown) [Compound 10], on IKZF2 (Helios), the inhibition at 10 µM came out at 77% and the DC50 came to 16 nM.
Compound `O=C1CCC(N2C(=O)c3ccc(C4CCN(Cc5cccc(Nc6ccccn6)n5)CC4)cc3C2=O)C(=O)N1` (stereo not shown) [Compound 11] registered a 50% inhibitory concentration (IC50) at CRBN (NanoLuc-CRBN) of 240 nM. At IKZF2 (Helios), this compound displayed an inhibition at 10 µM of 45%.
For the compound `O=C1CCC(N2C(=O)c3ccc(C4(O)CCN(Cc5cc(F)cc(F)c5)CC4)cc3C2=O)C(=O)N1` (stereo not shown) [Compound 12], at IKZF2 (Helios), 10 µM produced 76% inhibition and the DC50 worked out at 61 nM.
Taken in the same sequence, the figures for `O=C1CCC(N2C(=O)c3ccc(C4(O)CCN(Cc5ccc(OC(F)F)cc5)CC4)cc3C2=O)C(=O)N1` (stereo not shown) [Compound 13] were 74% and 19 nM.
For `O=C1CCC(N2C(=O)c3ccc(C4(O)CCN(Cc5ccccc5C(F)(F)F)CC4)cc3C2=O)C(=O)N1` (stereo not shown) [Compound 14], the IC50 against CRBN (NanoLuc-CRBN) worked out at 62 nM. At IKZF2 (Helios), the inhibition at 10 µM amounted to 57% and the DC50 was 20 nM.
For the compound `O=C1CCC(N2C(=O)c3ccc(C4(O)CCN(Cc5cccc(Oc6ccccc6)c5)CC4)cc3C2=O)C(=O)N1` (stereo not shown) [Compound 15], the half-inhibitory concentration (IC50) at CRBN (NanoLuc-CRBN) stood at 31 nM. On IKZF2 (Helios), the inhibition at 10 µM is 76% and the half-maximal degradation concentration (DC50) was 4.2 nM.
With `O=C1CCC(N2C(=O)c3ccc(C4(O)CCN(Cc5ccc(C(F)(F)F)cc5)CC4)cc3C2=O)C(=O)N1` (stereo not shown) [Compound 16], on IKZF2 (Helios), the inhibition at 10 µM turned out to be 69% and the DC50 worked out at 56 nM.
Consider `O=C1CCC(N2C(=O)c3ccc(C4(O)CCN(Cc5ccc6ccccc6c5)CC4)cc3C2=O)C(=O)N1` (stereo not shown) [Compound 17, 2-(2,6-dioxo-3-piperidyl)-5-[4-hydroxy-1-(2-naphthylmethyl)-4-piperidyl]isoindoline-1,3-dione], for which, on CRBN (NanoLuc-CRBN), the half-inhibitory concentration (IC50) was found to be 200 nM. Besides, on IKZF2 (Helios), at 10 µM the inhibition was 80% and the DC50 is 13 nM.
Regarding `O=C1CCC(N2C(=O)c3ccc(C4(O)CCN(Cc5ccccc5)CC4)cc3C2=O)C(=O)N1` (stereo not shown) [Compound 18, 5-(1-benzyl-4-hydroxypiperidin-4-yl)-2-(2,6-dioxopiperidin-3-yl)isoindoline-1,3-dione], at CRBN (NanoLuc-CRBN), the IC50 stood at 65 nM. Also, on IKZF2 (Helios), the inhibition at 10 µM was 70% and the half-maximal degradation concentration (DC50) came to 22 nM.
Turning to `O=C1CCC(N2C(=O)c3ccc(C4=CCN(Cc5ccccc5)CC4)cc3C2=O)C(=O)N1` (stereo not shown) [Compound 19, 5-(1-Benzyl-1,2,3,6-tetrahydropyridin-4-yl)-2-(2,6-dioxopiperidin-3-yl)isoindoline-1,3-dione], the midpoint of inhibition on CRBN (NanoLuc-CRBN), the IC50, lay at 1700 nM. The inhibition at 10 µM against IKZF2 (Helios) came out at 30%.
As to `O=C1CCC(N2C(=O)c3ccc(C4CCN(Cc5ccccc5)CC4)cc3C2=O)C(=O)N1` (stereo not shown) [Compound 20], testing at 10 µM against IKZF2 (Helios) gave an inhibition of 45%.
